# Data reported in ChEMBL document CHEMBL1139783, “Cyclonatsudamine A, a new vasodilator cyclic peptide from Citrus natsudaidai” (2007).
# The source made the active and inactive calls. The calls are words filed in the database; no cut-off is given here. Where a SMILES comes first, the peptide text is derived from it.
# Columns and labels:
# [1] = tested on: Aorta; test: Vasorelaxation effect on norepinephrine-induced contractions in rat aorta with endothelium at 0.1 uM; type: functional; parameters: scale not given: the % may be the effect or the level left
# [2] = tested on: Aorta; test: Vasorelaxation effect on norepinephrine-induced contractions in rat aorta with endothelium at 100 uM; type: functional; parameters: scale not given: the % may be the effect or the level left
# [3] = tested on: Aorta; test: Vasorelaxation effect on norepinephrine-induced contractions in rat endothelium-denuded aorta; type: functional, tissue-based
# [4] = tested on: Aorta; test: Inhibition of drug-induced vasorelaxation in rat aorta precontracted with norepinephrine in presence of nitric oxide synthase inhibitor L-NAME; type: functional, tissue-based
smiles,measurement,setting,value
CC(C)C[C@@H]1NC(=O)[C@H](Cc2ccc(O)cc2)NC(=O)CNC(=O)[C@H](CO)NC(=O)[C@@H]2CCCN2C(=O)[C@@H]2CCCN2C(=O)[C@H](CC(C)C)NC1=O [CYCONATSUDAMINE A] (cyclo(GYLLPPS)),Activity,[1],40%
same,Activity,[2],80%
same,Activity,[3],inactive
same,Activity,[4],Active
